Values after ≈ are worked out from the molar mass of the structure shown. Counter-ions that a name gives are not always drawn. Like-named read-outs stand apart in the source and are kept apart here. One block for each compound: values may come before it.
What was measured:
Type in all cases: cell-based
[1] = test system: Staphylococcus aureus MSSA; assay: in vitro bacteriostatic activity, agar dilution MIC; details: Staphylococcus aureus, MSSA
[2] = test system: Staphylococcus epidermidis ATCC 12228; assay: in vitro bacteriostatic activity, agar dilution MIC, quality control strain; details: ATCC12228
[3] = test system: Enterococcus faecalis; assay: in vitro bacteriostatic activity, agar dilution MIC
[4] = test system: Enterococcus faecium; assay: as above
[5] = test system: Staphylococcus epidermidis MSSE; assay: as above
[6] = test system: Streptococcus pneumoniae; assay: as above
[7] = Staphylococcus aureus MSSA 12-11, read-out: MIC
[8] = Staphylococcus aureus MSSA 12-13, read-out: MIC
[9] = Staphylococcus aureus MSSA 12-14, read-out: MIC
[10] = Staphylococcus aureus MSSA 12-15
[11] = Staphylococcus aureus MSSA 12-16, read-out: MIC
[12] = Staphylococcus aureus MSSA 12-17, read-out: MIC
[13] = Staphylococcus aureus MSSA 12-18
[14] = Staphylococcus aureus MSSA 12-19, read-out: MIC
[15] = Staphylococcus aureus MSSA 12-20, read-out: MIC
[16] = Staphylococcus aureus MSSA 12-21
[17] = Enterococcus faecalis, ATCC29212, Enterococcus faecalis ATCC 29212, read-out: MIC
[18] = Enterococcus faecalis, ATCC51299, Enterococcus faecalis (high endurance) ATCC 51299, read-out: MIC
[19] = Enterococcus faecalis, Enterococcus faecalis 12-11, read-out: MIC
[20] = Enterococcus faecalis, Enterococcus faecalis 12-12, read-out: MIC
[21] = Enterococcus faecalis, Enterococcus faecalis 12-13, read-out: MIC
[22] = Enterococcus faecalis, Enterococcus faecalis 12-14, read-out: MIC
[23] = Enterococcus faecalis, Enterococcus faecalis 12-17, read-out: MIC
[24] = Enterococcus faecalis, Enterococcus faecalis 12-18, read-out: MIC
[25] = Enterococcus faecalis, Enterococcus faecalis 12-19, read-out: MIC
[26] = Enterococcus faecalis, Enterococcus faecalis 12-20, read-out: MIC
[27] = Enterococcus faecalis, Enterococcus faecalis 12-21, read-out: MIC
[28] = Enterococcus faecalis, Enterococcus faecalis 12-22, read-out: MIC
[29] = Enterococcus faecium, ATCC33186, Enterococcus faecium ATCC 33186, read-out: MIC
[30] = Enterococcus faecium, Enterococcus faecium 12-7, read-out: MIC
[31] = Enterococcus faecium, Enterococcus faecium 12-8, read-out: MIC
[32] = Enterococcus faecium, Enterococcus faecium 12-9, read-out: MIC
[33] = Enterococcus faecium, Enterococcus faecium 12-10, read-out: MIC
[34] = Enterococcus faecium, Enterococcus faecium 12-11, read-out: MIC
[35] = Enterococcus faecium, Enterococcus faecium 12-12, read-out: MIC
[36] = Enterococcus faecium, Enterococcus faecium 12-13, read-out: MIC
[37] = Enterococcus faecium, Enterococcus faecium 12-14, read-out: MIC
[38] = Enterococcus faecium, Enterococcus faecium 12-15, read-out: MIC
[39] = Enterococcus faecium, Enterococcus faecium 12-16, read-out: MIC
[40] = Staphylococcus epidermidis, Staphylococcus epidermidis MSSE 12-12, read-out: MIC
[41] = Staphylococcus epidermidis, Staphylococcus epidermidis MSSE 12-13, read-out: MIC
[42] = Staphylococcus epidermidis, Staphylococcus epidermidis MSSE 12-14, read-out: MIC
[43] = Staphylococcus epidermidis, Staphylococcus epidermidis MSSE 12-15, read-out: MIC
[44] = Staphylococcus epidermidis, Staphylococcus epidermidis MSSE 12-16, read-out: MIC
[45] = Staphylococcus epidermidis, Staphylococcus epidermidis MSSE 12-17, read-out: MIC
[46] = Staphylococcus epidermidis, Staphylococcus epidermidis MSSE 12-18, read-out: MIC
[47] = Staphylococcus epidermidis, Staphylococcus epidermidis MSSE 12-19, read-out: MIC

Compound: CC[C@H]1OC(=O)[C@H](C)[C@@H](O[C@H]2C[C@@](C)(OC)[C@@H](O)[C@H](C)O2)[C@H](C)[C@@H](O[C@@H]2O[C@H](C)C[C@H](N(C)C)[C@H]2O)[C@](C)(O)C[C@@H](C)CN(C)[C@H](C)[C@@H](O)[C@]1(C)O [azithromycin, Azithromycin]
MIC [1, 7]: > 128 µg/mL
MIC [1, 8]: 0.25 µg/mL (≈ 0.334 µM)
MIC [1, 9]: > 128 µg/mL
MIC [1, 10]: 0.125 µg/mL (≈ 0.167 µM)
MIC [1, 11]: > 128 µg/mL
MIC [1, 12]: > 128 µg/mL
MIC [1, 13]: 128 µg/mL (≈ 171 µM)
MIC [1, 14]: > 128 µg/mL
MIC [1, 15]: > 128 µg/mL
MIC [1, 16]: 128 µg/mL (≈ 171 µM)
MIC ([2]; Staphylococcus epidermidis): 0.125 µg/mL (≈ 0.167 µM)
MIC [3, 17]: 4 µg/mL (≈ 5.34 µM)
MIC [3, 18]: > 128 µg/mL
MIC [3, 19]: > 128 µg/mL
MIC [3, 20]: 4 µg/mL (≈ 5.34 µM)
MIC [3, 21]: > 128 µg/mL
MIC [3, 22]: 1 µg/mL (≈ 1.34 µM)
MIC [3, 23]: > 128 µg/mL
MIC [3, 24]: > 128 µg/mL
MIC [3, 25]: > 128 µg/mL
MIC [3, 26]: > 128 µg/mL
MIC [3, 27]: > 128 µg/mL
MIC [3, 28]: > 128 µg/mL
MIC [4, 29]: 2 µg/mL (≈ 2.67 µM)
MIC [4, 30]: > 128 µg/mL
MIC [4, 31]: 1 µg/mL (≈ 1.34 µM)
MIC [4, 32]: > 128 µg/mL
MIC [4, 33]: > 128 µg/mL
MIC [4, 34]: > 128 µg/mL
MIC [4, 35]: > 128 µg/mL
MIC [4, 36]: > 128 µg/mL
MIC [4, 37]: > 128 µg/mL
MIC [4, 38]: > 128 µg/mL
MIC [4, 39]: > 128 µg/mL
MIC ([5]; Staphylococcus epidermidis): 128 µg/mL (≈ 171 µM)
MIC ([5]; Staphylococcus epidermidis MSSE 12-20): 128 µg/mL (≈ 171 µM)
MIC [5, 40]: 4 µg/mL (≈ 5.34 µM)
MIC [5, 41]: > 128 µg/mL
MIC [5, 42]: 8 µg/mL (≈ 10.7 µM)
MIC [5, 43]: 8 µg/mL (≈ 10.7 µM)
MIC [5, 44]: 64 µg/mL (≈ 85.4 µM)
MIC [5, 45]: 8 µg/mL (≈ 10.7 µM)
MIC [5, 46]: 16 µg/mL (≈ 21.4 µM)
MIC [5, 47]: 16 µg/mL (≈ 21.4 µM)

MIC ([1]; Staphylococcus aureus MSSA 12-11): 4 µg/mL
MIC ([1]; Staphylococcus aureus MSSA 12-13): 4 µg/mL
MIC ([1]; Staphylococcus aureus MSSA 12-14): 2 µg/mL
MIC [1, 10]: 2 µg/mL
MIC ([1]; Staphylococcus aureus MSSA 12-16): 4 µg/mL
MIC ([1]; Staphylococcus aureus MSSA 12-17): 4 µg/mL
MIC [1, 13]: 2 µg/mL
MIC ([1]; Staphylococcus aureus MSSA 12-19): 2 µg/mL
MIC ([1]; Staphylococcus aureus MSSA 12-20): 2 µg/mL
MIC [1, 16]: 4 µg/mL
MIC ([2]; Staphylococcus epidermidis): 1 µg/mL
MIC ([3]; Enterococcus faecalis 12-11): >128 µg/mL
MIC ([3]; Enterococcus faecalis 12-13): >128 µg/mL
MIC ([3]; Enterococcus faecalis, ATCC29212, Enterococcus faecalis ATCC 29212): 16 µg/mL
MIC ([3]; Enterococcus faecalis, ATCC51299, Enterococcus faecalis (high endurance) ATCC 51299): 32 µg/mL
MIC ([3]; Enterococcus faecalis, Enterococcus faecalis 12-12): 4 µg/mL
MIC ([3]; Enterococcus faecalis, Enterococcus faecalis 12-14): 8 µg/mL
MIC ([3]; Enterococcus faecalis, Enterococcus faecalis 12-17): 32 µg/mL
MIC ([3]; Enterococcus faecalis, Enterococcus faecalis 12-18): 16 µg/mL
MIC ([3]; Enterococcus faecalis, Enterococcus faecalis 12-19): 16 µg/mL
MIC ([3]; Enterococcus faecalis, Enterococcus faecalis 12-20): 16 µg/mL
MIC ([3]; Enterococcus faecalis, Enterococcus faecalis 12-21): 16 µg/mL
MIC ([3]; Enterococcus faecalis, Enterococcus faecalis 12-22): 32 µg/mL
MIC ([4]; Enterococcus faecium 12-7): >128 µg/mL
MIC ([4]; Enterococcus faecium 12-8): >128 µg/mL
MIC ([4]; Enterococcus faecium 12-9): >128 µg/mL
MIC ([4]; Enterococcus faecium 12-10): >128 µg/mL
MIC ([4]; Enterococcus faecium 12-11): >128 µg/mL
MIC ([4]; Enterococcus faecium 12-12): >128 µg/mL
MIC ([4]; Enterococcus faecium 12-13): >128 µg/mL
MIC ([4]; Enterococcus faecium 12-14): >128 µg/mL
MIC ([4]; Enterococcus faecium 12-15): >128 µg/mL
MIC ([4]; Enterococcus faecium 12-16): >128 µg/mL
MIC ([4]; Enterococcus faecium, ATCC33186, Enterococcus faecium ATCC 33186): 16 µg/mL
MIC ([5]; Staphylococcus epidermidis, Staphylococcus epidermidis MSSE 12-11): 1 µg/mL
MIC ([5]; Staphylococcus epidermidis, Staphylococcus epidermidis MSSE 12-12): 1 µg/mL
MIC ([5]; Staphylococcus epidermidis, Staphylococcus epidermidis MSSE 12-13): 1 µg/mL
MIC ([5]; Staphylococcus epidermidis, Staphylococcus epidermidis MSSE 12-14): 16 µg/mL
MIC ([5]; Staphylococcus epidermidis, Staphylococcus epidermidis MSSE 12-15): 16 µg/mL
MIC ([5]; Staphylococcus epidermidis, Staphylococcus epidermidis MSSE 12-16): 0.25 µg/mL
MIC ([5]; Staphylococcus epidermidis, Staphylococcus epidermidis MSSE 12-17): 2 µg/mL
MIC ([5]; Staphylococcus epidermidis, Staphylococcus epidermidis MSSE 12-18): 1 µg/mL
MIC ([5]; Staphylococcus epidermidis, Staphylococcus epidermidis MSSE 12-19): 1 µg/mL
MIC ([5]; Staphylococcus epidermidis, Staphylococcus epidermidis MSSE 12-20): 2 µg/mL
Compound: CO/N=C(\C(=O)N[C@@H]1C(=O)N2C(C(=O)[O-])=C(C[N+]3(C)CCCC3)CS[C@H]12)c1csc(N)n1 [cefepime, Cefepime hydrochloride]

MIC [1, 7]: 0.5 µg/mL
MIC [1, 8]: 0.5 µg/mL
MIC [1, 9]: 0.5 µg/mL
MIC ([1]; Staphylococcus aureus MSSA 12-15, read-out: MIC): 0.25 µg/mL
MIC [1, 11]: 0.5 µg/mL
MIC [1, 12]: 0.125 µg/mL
MIC ([1]; Staphylococcus aureus MSSA 12-18, read-out: MIC): 0.25 µg/mL
MIC [1, 14]: 0.25 µg/mL
MIC [1, 15]: 0.5 µg/mL
MIC ([1]; Staphylococcus aureus MSSA 12-21, read-out: MIC): 0.25 µg/mL
MIC ([2]; Staphylococcus epidermidis ATCC 12228, read-out: MIC): 0.5 µg/mL
MIC [3, 17]: 1 µg/mL
MIC [3, 18]: 1 µg/mL
MIC [3, 19]: > 128 µg/mL
MIC [3, 20]: 1 µg/mL
MIC [3, 21]: 32 µg/mL
MIC [3, 22]: 1 µg/mL
MIC [3, 23]: 2 µg/mL
MIC [3, 24]: 2 µg/mL
MIC [3, 25]: 2 µg/mL
MIC [3, 26]: 2 µg/mL
MIC [3, 27]: 2 µg/mL
MIC [3, 28]: 1 µg/mL
MIC ([6]; ATCC49619, Streptococcus pneumonia ATCC 49619): 0.2 µg/mL
MIC ([6]; Streptococcus pneumonia 12-6): 0.05 µg/mL
MIC ([6]; Streptococcus pneumonia 12-7): 0.1 µg/mL
MIC ([6]; Streptococcus pneumonia 12-8): 0.1 µg/mL
MIC ([6]; Streptococcus pneumonia 12-9): 0.1 µg/mL
MIC ([6]; Streptococcus pneumonia 12-10): 0.2 µg/mL
MIC ([6]; Streptococcus pneumoniae 12-1): 0.1 µg/mL
MIC ([6]; Streptococcus pneumoniae 12-2): 0.2 µg/mL
MIC ([6]; Streptococcus pneumoniae 12-3): 0.1 µg/mL
MIC ([6]; Streptococcus pneumoniae 12-4): 0.4 µg/mL
MIC ([6]; Streptococcus pneumoniae 12-5): 0.05 µg/mL
MIC [4, 29]: 2 µg/mL
MIC [4, 30]: 128 µg/mL
MIC [4, 31]: > 128 µg/mL
MIC [4, 32]: 128 µg/mL
MIC [4, 33]: > 128 µg/mL
MIC [4, 34]: 128 µg/mL
MIC [4, 35]: > 128 µg/mL
MIC [4, 36]: > 128 µg/mL
MIC [4, 37]: > 128 µg/mL
MIC [4, 38]: 128 µg/mL
MIC [4, 39]: 128 µg/mL
MIC ([5]; Staphylococcus epidermidis, Staphylococcus epidermidis MSSE 12-11, read-out: MIC): 0.03 µg/mL
MIC [5, 40]: 0.06 µg/mL
MIC [5, 41]: 0.5 µg/mL
MIC [5, 42]: 8 µg/mL
MIC [5, 43]: 8 µg/mL
MIC [5, 44]: 0.06 µg/mL
MIC [5, 45]: 0.03 µg/mL
MIC [5, 46]: 0.06 µg/mL
MIC [5, 47]: 0.06 µg/mL
MIC ([5]; Staphylococcus epidermidis, Staphylococcus epidermidis MSSE 12-20, read-out: MIC): 0.03 µg/mL
Compound: CC1(C)S[C@@H]2[C@H](NC(=O)Cc3ccccc3)C(=O)N2[C@H]1C(=O)O [penicillin, Benzylpenicillin sodium]

Source: patent publication EP2826473A1, “NOVEL USE OF PATCHOULOL” (Chengdu Huasun Group Inc., Ltd., priority 2012, dated 2013)
